Laboratory results taken from publication PMC4183650 (Journal of the American Chemical Society, 2014).

What was measured:
VanA VRE = conditions: clinically resistant phenotypes (VanA and VanB); cited from earlier work
[1] = test system: panel of Gram-positive bacteria (VSSA, MRSA, VanA and VanB VRE); experiment: In vitro antimicrobial assay, panel summary in text; assay type: cell-based, S. aureus, E. faecalis, E. faecium
[2] = both D-Ala-D-Ala and D-Ala-D-Lac ligands; cited from earlier work

Vancomycin [compound 1]
loss in antimicrobial activity in resistant phenotypes (VanA VRE): 1000 fold

[Ψ[C(=NH)NH]Tpg^4]vancomycin [compound 3]
MIC against VanA resistant bacteria ([1]; VanA resistant bacteria): 0.5 µg/mL

[Ψ[C(=NH)NH]Tpg^4]vancomycin aglycon [compound 9]
binding affinity for both target ligands relative to vancomycin aglycon for D-Ala-D-Ala [2]: ≤ 2 fold

[Ψ[C(=S)NH]Tpg^4]vancomycin [compound 2]
MIC against all vancomycin sensitive and resistant strains ([1]; whole panel: VSSA, MRSA, VanA and VanB VRE): > 32 µg/mL
